Source: paper PMC11672400, “Synthesis, Spectroscopic Characterization, Structural Analysis, and Evaluation of Anti-Tumor, Antimicrobial, and Antibiofilm Activities of Halogenoaminopyrazoles Derivatives” (Antibiotics, 2024)
In brackets after ≈: the same amount, converted by molar mass. Read-outs that look alike come from different tables or passages of the source.

Assays:
[1] = system: Pseudomonas aeruginosa ATCC27853; experiment: Antibiofilm assay (crystal violet), MBIC; assay type: cell-based; conditions: 37 °C; for minimal effective concentration: Pseudomonas aeruginosa, ATCC27853, 24 h, read-out: Minimum biofilm inhibition concentration (MBIC), Pseudomonas aeruginosa ATCC27853
Method: (§1) Microorganisms were grown in 96-well plates filled with nutrient broth along with test substances, followed by incubation at 37 °C for 24 h. Plates were cleaned and rinsed thrice using SPW solution (sterile physiological water). After that, the attached cells were treated with 110 μL of methanol for 5 min, and then the methanol was removed by turning it upside down. […] Once stained, the solution was removed, and the plates were washed with running tap water. […] The antimicrobial/antibiofilm activity of the compounds was evaluated against two antibiotics, commercial formulations of metronidazole and nitrofurantoin.

[2] = system: Staphylococcus aureus ATCC25923; experiment: Antibiofilm assay (crystal violet), MBIC; assay type: cell-based; conditions: 24 h, 37 °C; for minimal effective concentration: Staphylococcus aureus, ATCC25923, read-out: Minimum biofilm inhibition concentration (MBIC), Staphylococcus aureus ATCC25923
Method: as §1

[3] = system: Escherichia coli ATCC25922; experiment: Antibiofilm assay (crystal violet), MBIC; assay type: cell-based; conditions: 37 °C; for minimal effective concentration: Escherichia coli, ATCC25922, 24 h, read-out: Minimum biofilm inhibition concentration (MBIC), Escherichia coli ATCC25922
Method: as §1

[4] = system: Enterococcus faecalis ATCC29212; experiment: Antibiofilm assay (crystal violet), MBIC; assay type: cell-based; conditions: Enterococcus faecalis, ATCC29212, 24 h, 37 °C, read-out: Minimum biofilm inhibition concentration (MBIC), Enterococcus faecalis ATCC29212
Method: as §1

[5] = system: Pseudomonas aeruginosa ATCC27853; experiment: Qualitative evaluation of antimicrobial activity (inhibition zone, spot on agar); assay type: cell-based; design: key: (+) inhibited bacterial growth; (-) did not inhibit bacterial growth; conditions: 0.06 g/2 mL DMSO, 5 µL spot
Method: (§2) For testing the antimicrobial/antibiofilm activity, the concentration of the studied compounds was identical to 0.06 g/2 mL DMSO. 0.5 Standard McFarland suspension was used, which was inoculated onto Mueller Hinton agar plates, (Remel, Lenexa, KS, USA), 5 µL of each compound was spotted and incubated overnight at 37 °C. Antimicrobial activity was observed as zones of inhibition formed around the spot.

[6] = system: Staphylococcus aureus ATCC25923; experiment: as above; assay type: cell-based; design: key: (+) inhibited bacterial growth; (-) did not inhibit bacterial growth; conditions: 0.06 g/2 mL DMSO, 5 µL spot
Method: as §2

[7] = system: Escherichia coli ATCC25922; experiment: as above; assay type: cell-based; design: key: (+) inhibited bacterial growth; (-) did not inhibit bacterial growth; conditions: 0.06 g/2 mL DMSO, 5 µL spot
Method: as §2

[8] = system: Enterococcus faecalis ATCC29212; experiment: as above; assay type: cell-based; design: key: (+) inhibited bacterial growth; (-) did not inhibit bacterial growth; conditions: 0.06 g/2 mL DMSO, 5 µL spot
Method: as §2

[9] = system: Pseudomonas aeruginosa ATCC27853; experiment: MIC by serial microdilution in liquid medium; assay type: cell-based; conditions: Pseudomonas aeruginosa, ATCC27853; 24 h, 37 °C; read-out: Minimum inhibitory concentration, Pseudomonas aeruginosa ATCC27853
Method: (§3) The minimum inhibitory concentrations (MIC) were determined by the serial microdilution method in a liquid medium (Tryptone Soy Broth), on 96-well plates. Serial binary dilutions of the compound stock solution (10 mg/mL in DMSO) were carried out in 90 µL of culture medium and 10 µL of 10^6 CFU/mL (Colony Forming Units) microbial suspension. Each test included a positive control (wells with culture medium and microbial suspension) and a negative control for medium sterility. After incubation at 37 °C for 24 h the plates were visually examined, and optical density was measured at 620 nm. […] The MIC value (µg/mL) for the chemical compound was determined by the concentration in the final well without bacterial growth. All experiments were performed in triplicate.

[10] = system: Staphylococcus aureus ATCC25923; experiment: MIC by serial microdilution in liquid medium; assay type: cell-based; conditions: 24 h, 37 °C; for MIC: Staphylococcus aureus, ATCC25923, read-out: Minimum inhibitory concentration, Staphylococcus aureus ATCC25923
Method: as §3

[11] = system: Escherichia coli ATCC25922; experiment: MIC by serial microdilution in liquid medium; assay type: cell-based; conditions: 24 h, 37 °C; for MIC: Escherichia coli, ATCC25922, read-out: Minimum inhibitory concentration, Escherichia coli ATCC25922
Method: as §3

[12] = system: Enterococcus faecalis ATCC29212; experiment: MIC by serial microdilution in liquid medium; assay type: cell-based; conditions: Enterococcus faecalis, ATCC29212; 24 h, 37 °C; read-out: Minimum inhibitory concentration, Enterococcus faecalis ATCC29212
Method: as §3

[13] = system: HEp-2 epithelial tumor cells; experiment: MTT cell viability / anti-tumor activity; conditions: Homo sapiens, read-out: Cell viability on Hep2 cells (%)
[14] = MTT cell viability / cytotoxicity on normal fibroblasts; assay type: cell-based, mouse; conditions: mouse, NCTC clone 929 (L929) mouse fibroblast cells
Source text: Merck chemicals were utilized.
Untreated cells were used as control, considered 100% viable cells.

SMILES | minimal effective concentration [1] | minimal effective concentration [2] | minimal effective concentration [3] | Qualitative antimicrobial activity, Pseudomonas aeruginosa ATCC27853 [5] | Qualitative antimicrobial activity, Staphylococcus aureus ATCC25923 [6] | Qualitative antimicrobial activity, Escherichia coli ATCC25922 [7] | Qualitative antimicrobial activity, Enterococcus faecalis ATCC29212 [8] | MIC [9] | MIC [10] | MIC [11] | MIC [12] | Minimum biofilm inhibition concentration (MBIC), Staphylococcus aureus ATCC25923 [2] | Minimum inhibitory concentration, Staphylococcus aureus ATCC25923 [10] | Minimum inhibitory concentration, Escherichia coli ATCC25922 [11] | viability at 3.1 µg/mL ([13]; HEp-2, 24 h) | viability at 6.25 µg/mL ([13]; HEp-2, 24 h) | viability at 12.5 µg/mL ([13]; HEp-2, 24 h) | viability at 25 µg/mL ([13]; HEp-2, 24 h) | viability at 50 µg/mL ([13]; HEp-2, 24 h) | viability at 3.1 µg/mL ([13]; HEp-2, 48 h) | further results
Cc1ncc([N+](=O)[O-])n1CCO [Metronidazole, metronidazole, reference compound] | 1562 ± 0.11 µg/mL | 1950 ± 0.09 µg/mL | 1950 ± 0.04 µg/mL | + | + | + | + | 1562 ± 0.03 µg/mL (≈ 9130 µM) | 1950 ± 0.05 µg/mL (≈ 11400 µM) | 1950 ± 0.05 µg/mL (≈ 11400 µM) | 970 ± 0.17 µg/mL (≈ 5670 µM) |  |  |  |  |  |  |  |  |  | minimal effective concentration [4]: 970 ± 0.21 µg/mL
Cc1nn(CNc2cccc(Cl)c2)c(C)c1[N+](=O)[O-] [4e, N-[(3,5-dimetyl-4-nitro-1H-pyrazol-1-yl)-methyl]-3-chloroaniline] |  | 460 µg/mL |  | + | + | + | - | 930 ± 0.53 µg/mL (≈ 3310 µM) | 460 µg/mL (≈ 1640 µM) | 460 µg/mL (≈ 1640 µM) | 930 ± 0.02 µg/mL (≈ 3310 µM) | 460 ± 0.04 µg/mL | 460 ± 0.03 µg/mL (≈ 1640 µM) | 460 ± 0.52 µg/mL (≈ 1640 µM) | 106.5 ± 0.73% | 103.7 ± 0.28% | 99.7 ± 0.32% | 89.15 ± 0.88% | 56.46 ± 0.42% | 98.1 ± 2.88% | viability at 6.25 µg/mL ([13]; HEp-2, 48 h): 97.1 ± 1.78%; viability at 12.5 µg/mL ([13]; HEp-2, 48 h): 94.8 ± 2.84%; viability at 25 µg/mL ([13]; HEp-2, 48 h): 81.7 ± 2.38%; viability at 50 µg/mL ([13]; HEp-2, 48 h): 54.9 ± 2.76%; melting point: 110 to 111 °C; viability at 24 h, 3.1 µg/mL [14]: 93.1 ± 2.76%; viability at 48 h, 3.1 µg/mL [14]: 89.5 ± 2.24%; viability at 24 h, 6.25 µg/mL [14]: 94.3 ± 2.92%; viability at 48 h, 6.25 µg/mL [14]: 98.3 ± 2.03%; viability at 24 h, 12.5 µg/mL [14]: 97.8 ± 0.99%; viability at 48 h, 12.5 µg/mL [14]: 93.2 ± 2.94%; viability at 24 h, 25 µg/mL [14]: 95.6 ± 2.19%; viability at 48 h, 25 µg/mL [14]: 92.2 ± 0.89%; viability at 24 h, 50 µg/mL [14]: 63.5 ± 3.18%; viability at 48 h, 50 µg/mL [14]: 63.2 ± 2.56%
Cc1nn(CNc2ccccc2Cl)c(C)c1[N+](=O)[O-] [4f, N-[(3,5-dimetyl-4-nitro-1H-pyrazol-1-yl)-methyl]-2-chloroaniline] | 460 µg/mL | 460 µg/mL | 460 µg/mL | + | + | + | - | 460 ± 0.03 µg/mL (≈ 1640 µM) | 460 µg/mL (≈ 1640 µM) | 460 µg/mL (≈ 1640 µM) | 930 ± 0.04 µg/mL (≈ 3310 µM) | 460 ± 0.02 µg/mL | 460 ± 0.01 µg/mL (≈ 1640 µM) | 460 ± 0.02 µg/mL (≈ 1640 µM) | 98.3 ± 1.16% | 98.61 ± 0.72% | 95.5 ± 2.45% | 94.3 ± 2.78% | 93.9 ± 1.03% | 98.3 ± 3.38% | Minimum biofilm inhibition concentration (MBIC), Pseudomonas aeruginosa ATCC27853 ([1]; 24 h): 460 ± 0.01 µg/mL; Minimum biofilm inhibition concentration (MBIC), Escherichia coli ATCC25922 ([3]; 24 h): 460 ± 0.02 µg/mL; viability at 6.25 µg/mL ([13]; HEp-2, 48 h): 97.74 ± 0.62%; viability at 12.5 µg/mL ([13]; HEp-2, 48 h): 93.63 ± 0.75%; viability at 25 µg/mL ([13]; HEp-2, 48 h): 86 ± 0.93%; viability at 50 µg/mL ([13]; HEp-2, 48 h): 72.8 ± 2.33%; melting point: 134 to 135 °C; viability at 24 h, 3.1 µg/mL [14]: 107 ± 1.61%; viability at 48 h, 3.1 µg/mL [14]: 99.6 ± 1.2%; viability at 24 h, 6.25 µg/mL [14]: 108 ± 1.6%; viability at 48 h, 6.25 µg/mL [14]: 106 ± 1.7%; viability at 24 h, 12.5 µg/mL [14]: 103 ± 1.05%; viability at 48 h, 12.5 µg/mL [14]: 103.1 ± 0.68%; viability at 24 h, 25 µg/mL [14]: 93.7 ± 2.77%; viability at 48 h, 25 µg/mL [14]: 97.8 ± 2.35%; viability at 24 h, 50 µg/mL [14]: 87.7 ± 1.77%; viability at 48 h, 50 µg/mL [14]: 80.5 ± 1.16%
